Assay results from patent US9249129B2, “Morpholino substituted urea derivatives as mTOR inhibitors” (CELLZOME LIMITED, priority 2010, dated 2016).
pIC50: −log10 of the molar value. Where two headings read alike, the source gives them in different places.

Tests used:
Assay type in all cases: binding
mTOR = target: T1, mTOR (Homo sapiens, UniProt P42345); assay: mTOR kinobeads assay (dot blot detection)
T1 construct: endogenous in cells; host or cells: Jurkat cells (ATCC TIB-152, clone E6-1), lysate
In short: (§1)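 Jurkat cell lysate (5 mg/mL protein) incubated 2 h in the cold with test compound (9-step 1:3 series) and immobilized phenylthiazole/phenylmorpholin-chromen ligand beads. Bead-bound kinases eluted, detected by specific antibody dot blot with infrared readout; IC50 from dose-response curves.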

PI3K delta (PI3Kd) = target: T2, PI3K delta (PI3Kd) (Homo sapiens, UniProt O00329); assay: kinobeads assay, PI3K delta (dot blot detection)
T2 construct: endogenous in cells; host or cells: Jurkat cells (ATCC TIB-152, clone E6-1), lysate
In short: as §1

[1] = target: T3, DNA-dependent protein kinase (DNA-PK) (Homo sapiens, UniProt P78527); assay: kinobeads assay, DNA-PK (dot blot detection)
T3 construct: endogenous in cells; host or cells: Jurkat cells (ATCC TIB-152, clone E6-1), lysate
T3 sequence (P78527 whole entry): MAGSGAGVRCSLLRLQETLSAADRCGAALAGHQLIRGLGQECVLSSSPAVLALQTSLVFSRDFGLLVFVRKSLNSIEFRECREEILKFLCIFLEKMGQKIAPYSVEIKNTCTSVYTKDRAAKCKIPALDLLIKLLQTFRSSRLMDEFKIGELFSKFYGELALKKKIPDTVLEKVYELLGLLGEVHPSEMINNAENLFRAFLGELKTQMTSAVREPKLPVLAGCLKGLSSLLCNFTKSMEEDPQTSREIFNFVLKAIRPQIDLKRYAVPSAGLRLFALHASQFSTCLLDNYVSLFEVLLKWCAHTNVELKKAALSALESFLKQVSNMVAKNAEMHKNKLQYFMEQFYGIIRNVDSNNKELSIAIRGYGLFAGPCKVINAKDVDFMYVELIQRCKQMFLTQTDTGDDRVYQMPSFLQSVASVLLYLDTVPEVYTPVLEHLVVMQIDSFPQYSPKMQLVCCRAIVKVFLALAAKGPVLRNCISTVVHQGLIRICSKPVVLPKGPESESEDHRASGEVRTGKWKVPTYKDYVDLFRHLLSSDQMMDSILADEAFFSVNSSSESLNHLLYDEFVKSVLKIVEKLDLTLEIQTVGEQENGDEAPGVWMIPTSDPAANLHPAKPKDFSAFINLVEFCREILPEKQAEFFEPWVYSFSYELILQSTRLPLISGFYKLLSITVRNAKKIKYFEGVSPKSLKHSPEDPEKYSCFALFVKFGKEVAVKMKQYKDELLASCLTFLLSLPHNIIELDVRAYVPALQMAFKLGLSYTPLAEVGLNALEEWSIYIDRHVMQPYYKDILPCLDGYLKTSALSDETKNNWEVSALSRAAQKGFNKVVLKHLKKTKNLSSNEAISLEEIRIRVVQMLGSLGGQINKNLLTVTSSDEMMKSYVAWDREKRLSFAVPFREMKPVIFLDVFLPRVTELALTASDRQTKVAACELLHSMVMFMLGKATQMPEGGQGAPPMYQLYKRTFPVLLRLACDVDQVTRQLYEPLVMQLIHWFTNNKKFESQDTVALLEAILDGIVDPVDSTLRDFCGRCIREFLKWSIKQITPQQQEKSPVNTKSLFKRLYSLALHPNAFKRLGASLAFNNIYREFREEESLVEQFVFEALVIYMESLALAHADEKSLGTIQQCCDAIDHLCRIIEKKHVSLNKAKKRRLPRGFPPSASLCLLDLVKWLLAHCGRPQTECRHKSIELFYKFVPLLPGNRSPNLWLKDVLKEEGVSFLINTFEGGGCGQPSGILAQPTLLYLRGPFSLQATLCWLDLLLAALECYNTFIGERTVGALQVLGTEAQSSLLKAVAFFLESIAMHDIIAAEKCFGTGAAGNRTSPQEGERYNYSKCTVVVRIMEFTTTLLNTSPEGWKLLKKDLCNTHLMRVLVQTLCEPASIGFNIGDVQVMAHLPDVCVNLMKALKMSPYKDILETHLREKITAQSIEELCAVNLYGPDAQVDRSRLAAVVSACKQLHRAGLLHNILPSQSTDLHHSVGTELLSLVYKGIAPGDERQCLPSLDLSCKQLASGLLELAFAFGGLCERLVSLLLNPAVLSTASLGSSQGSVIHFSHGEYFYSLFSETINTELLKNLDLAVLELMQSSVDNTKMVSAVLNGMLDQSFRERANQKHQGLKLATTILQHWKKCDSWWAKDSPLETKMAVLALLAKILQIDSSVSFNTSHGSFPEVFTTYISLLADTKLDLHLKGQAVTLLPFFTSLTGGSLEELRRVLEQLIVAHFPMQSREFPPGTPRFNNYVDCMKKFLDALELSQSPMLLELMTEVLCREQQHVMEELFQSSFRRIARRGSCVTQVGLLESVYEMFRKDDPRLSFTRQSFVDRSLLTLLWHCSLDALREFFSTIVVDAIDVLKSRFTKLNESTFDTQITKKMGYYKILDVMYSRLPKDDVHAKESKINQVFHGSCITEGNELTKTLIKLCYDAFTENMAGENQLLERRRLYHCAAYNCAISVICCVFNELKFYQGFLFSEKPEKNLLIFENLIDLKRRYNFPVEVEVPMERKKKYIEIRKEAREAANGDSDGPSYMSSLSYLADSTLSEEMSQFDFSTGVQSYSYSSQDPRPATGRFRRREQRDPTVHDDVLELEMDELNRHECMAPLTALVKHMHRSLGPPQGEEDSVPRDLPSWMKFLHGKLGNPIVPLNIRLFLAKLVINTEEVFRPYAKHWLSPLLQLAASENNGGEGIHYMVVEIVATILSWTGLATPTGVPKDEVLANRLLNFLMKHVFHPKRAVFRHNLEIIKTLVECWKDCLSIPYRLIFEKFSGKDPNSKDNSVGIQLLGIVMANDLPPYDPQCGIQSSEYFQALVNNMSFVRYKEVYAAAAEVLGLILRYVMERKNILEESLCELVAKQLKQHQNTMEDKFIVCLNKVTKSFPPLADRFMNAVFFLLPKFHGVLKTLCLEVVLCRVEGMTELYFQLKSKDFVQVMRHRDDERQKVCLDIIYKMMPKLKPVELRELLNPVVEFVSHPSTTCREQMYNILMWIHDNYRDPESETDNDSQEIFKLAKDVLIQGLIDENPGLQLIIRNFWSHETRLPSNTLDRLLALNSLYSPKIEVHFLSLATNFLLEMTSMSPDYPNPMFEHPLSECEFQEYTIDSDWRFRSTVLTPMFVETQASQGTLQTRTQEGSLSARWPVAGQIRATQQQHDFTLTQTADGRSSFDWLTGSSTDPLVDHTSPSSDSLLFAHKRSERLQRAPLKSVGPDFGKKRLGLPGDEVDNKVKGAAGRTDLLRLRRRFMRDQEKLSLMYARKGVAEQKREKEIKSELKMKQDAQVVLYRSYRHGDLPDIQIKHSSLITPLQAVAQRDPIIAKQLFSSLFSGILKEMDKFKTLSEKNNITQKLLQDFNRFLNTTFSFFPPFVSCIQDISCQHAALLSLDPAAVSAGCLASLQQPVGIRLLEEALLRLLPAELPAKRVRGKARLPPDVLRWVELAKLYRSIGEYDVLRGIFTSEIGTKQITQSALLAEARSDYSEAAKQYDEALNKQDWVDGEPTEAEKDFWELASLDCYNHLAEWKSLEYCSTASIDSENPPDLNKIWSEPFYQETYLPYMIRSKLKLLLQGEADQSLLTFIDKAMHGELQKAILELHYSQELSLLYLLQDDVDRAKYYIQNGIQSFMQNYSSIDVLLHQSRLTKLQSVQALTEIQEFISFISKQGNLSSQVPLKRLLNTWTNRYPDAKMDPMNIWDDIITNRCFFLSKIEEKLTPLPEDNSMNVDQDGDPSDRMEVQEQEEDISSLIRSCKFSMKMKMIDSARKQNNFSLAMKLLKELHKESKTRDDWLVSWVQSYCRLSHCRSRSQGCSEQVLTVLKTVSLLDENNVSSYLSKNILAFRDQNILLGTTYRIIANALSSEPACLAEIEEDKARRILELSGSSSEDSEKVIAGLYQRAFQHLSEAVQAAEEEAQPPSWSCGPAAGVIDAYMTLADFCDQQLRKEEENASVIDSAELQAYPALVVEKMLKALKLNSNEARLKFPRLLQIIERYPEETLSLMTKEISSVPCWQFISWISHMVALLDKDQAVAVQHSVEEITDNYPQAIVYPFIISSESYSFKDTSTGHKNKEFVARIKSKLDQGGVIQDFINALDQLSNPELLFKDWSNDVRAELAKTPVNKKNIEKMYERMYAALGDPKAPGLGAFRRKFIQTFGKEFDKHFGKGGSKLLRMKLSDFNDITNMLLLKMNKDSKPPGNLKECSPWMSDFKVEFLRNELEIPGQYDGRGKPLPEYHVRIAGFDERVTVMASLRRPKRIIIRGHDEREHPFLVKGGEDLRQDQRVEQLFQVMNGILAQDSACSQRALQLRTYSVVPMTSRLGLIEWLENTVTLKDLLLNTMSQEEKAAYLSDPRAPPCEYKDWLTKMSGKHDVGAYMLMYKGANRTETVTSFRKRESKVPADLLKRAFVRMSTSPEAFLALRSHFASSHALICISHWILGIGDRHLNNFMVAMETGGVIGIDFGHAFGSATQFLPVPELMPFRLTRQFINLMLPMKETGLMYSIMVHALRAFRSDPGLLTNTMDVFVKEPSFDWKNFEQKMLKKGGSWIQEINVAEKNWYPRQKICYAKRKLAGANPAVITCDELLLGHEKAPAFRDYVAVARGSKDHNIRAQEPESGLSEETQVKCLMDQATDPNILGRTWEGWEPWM
In short: as §1

PI3Kα = target: T4, PI3Kα (Homo sapiens, UniProt P42336); assay: kinobeads assay, PI3K alpha (dot blot detection); details: Table 4, read-out: Inhibition values (IC50) PI3Ka
T4 construct: endogenous in cells; host or cells: Jurkat cells (ATCC TIB-152) lysate, the only lysate described

PI3Kβ = target: T5, PI3Kβ (Homo sapiens, UniProt P42338); assay: kinobeads assay, PI3K beta (dot blot detection); details: Table 4, read-out: Inhibition values (IC50) PI3Kb
T5 construct: endogenous in cells; host or cells: Jurkat cells (ATCC TIB-152) lysate, the only lysate described

PI3Kγ = target: T6, PI3Kγ (Homo sapiens, UniProt P48736); assay: kinobeads assay, PI3K gamma (dot blot detection); details: Table 4, read-out: Inhibition values (IC50) PI3Kg
T6 construct: endogenous in cells; host or cells: Jurkat cells (ATCC TIB-152) lysate, the only lysate described

[2] = Table 2, Jurkat cell lysate, read-out: Inhibition values (IC50) mTor
[3] = Table 4, read-out: Inhibition values (IC50) mTOR
[4] = Table 2, Jurkat cell lysate, read-out: Inhibition values (IC50) PI3Kd
[5] = Table 4, read-out: Inhibition values (IC50) PI3Kd
[6] = Table 2, Jurkat cell lysate, read-out: Inhibition values (IC50) DNAPK
[7] = Table 4, read-out: Inhibition values (IC50) DNAPK

Compound	pIC50 (mTOR; [2])	pIC50 (mTOR; [3])	pIC50 (PI3K delta (PI3Kd); [4])	pIC50 (PI3K delta (PI3Kd); [5])	pIC50 [1, 6]	pIC50 [1, 7]	pIC50 (PI3Kα)	pIC50 (PI3Kβ)	pIC50 (PI3Kγ)
CCNC(=O)Nc1ccc(-c2cc(-c3cc(F)ccc3S(C)(=O)=O)nc(N3CCOC[C@@H]3C)n2)cc1 [Example 2, (S)-1-ethyl-3-(4-(6-(5-fluoro-2-(methylsulfonyl)phenyl)-2-(3-methylmorpholino)pyrimidin-4-yl)phenyl)urea]	6.00 to 7.00	6.00 to 7.00	≤ 5.00	≤ 5.00	≤ 5.00	≤ 5.00	≤ 5.00	≤ 5.00	≤ 5.00
C[C@H]1COCCN1c1nc(-c2ccc(NC(=O)NC3CC3)cc2)cc(-c2ccccc2S(C)(=O)=O)n1 [Example 4, (S)-1-cyclopropyl-3-(4-(2-(3-methylmorpholino)-6-(2-(methylsulfonyl)phenyl)pyrimidin-4-yl)phenyl)urea]	6.00 to 7.00	6.00 to 7.00	≤ 5.00	≤ 5.00	≤ 5.00	≤ 5.00	≤ 5.00	≤ 5.00	≤ 5.00
C[C@H]1COCCN1c1cc(-c2ccccc2S(C)(=O)=O)nc(-c2ccc(NC(=O)NC3CC3)cc2)n1 [Example 6, (S)-1-cyclopropyl-3-(4-(4-(3-methylmorpholino)-6-(2-(methylsulfonyl)phenyl)pyrimidin-2-yl)phenyl)urea]	6.00 to 7.00	6.00 to 7.00	≤ 5.00	≤ 5.00	≤ 5.00	≤ 5.00	≤ 5.00	≤ 5.00	≤ 5.00
CCNC(=O)Nc1ccc(-c2cc(-c3ccccc3C#N)nc(N3CCOC[C@@H]3C)n2)cc1 [Example 8, (S)-1-(4-(6-(2-cyanophenyl)-2-(3-methylmorpholino)pyrimidin-4-yl)phenyl)-3-ethylurea]	5.00 to 6.00	5.00 to 6.00	≤ 5.00	≤ 5.00	≤ 5.00	≤ 5.00			
C[C@H]1COCCN1c1cc(-c2ccc(F)nc2)nc(-c2ccc(NC(=O)NC3CC3)cc2)n1 [Example 21, (S)-1-cyclopropyl-3-(4-(4-(6-fluoropyridin-3-yl)-6-(3-methylmorpholino)pyrimidin-2-yl)phenyl)urea]	6.00 to 7.00	6.00 to 7.00	≤ 5.00	≤ 5.00	≤ 5.00	≤ 5.00	≤ 5.00	≤ 5.00	≤ 5.00
C[C@H]1COCCN1c1cc(-c2cncc(F)c2)nc(-c2ccc(NC(=O)NC3CC3)cc2)n1 [Example 23, (S)-1-cyclopropyl-3-(4-(4-(5-fluoropyridin-3-yl)-6-(3-methylmorpholino)pyrimidin-2-yl)phenyl)urea]	6.00 to 7.00	6.00 to 7.00	≤ 5.00	≤ 5.00	≤ 5.00	≤ 5.00	≤ 5.00	≤ 5.00	≤ 5.00
C[C@H]1COCCN1c1nc(-c2ccc(NC(=O)NC3CC3)cc2)cc(-c2cc(F)ccc2S(C)(=O)=O)n1 [Example 40, (S)-1-cyclopropyl-3-(4-(6-(5-fluoro-2-(methylsulfonyl)phenyl)-2-(3-methylmorpholino)pyrimidin-4-yl)phenyl)urea]	6.00 to 7.00	6.00 to 7.00	≤ 5.00	≤ 5.00	≤ 5.00	≤ 5.00	≤ 5.00	≤ 5.00	≤ 5.00
C[C@H]1COCCN1c1nc(-c2ccc(NC(=O)NCCO)cc2)cc(-c2cc(F)ccc2S(C)(=O)=O)n1 [Example 41, (S)-1-(4-(6-(5-fluoro-2-(methylsulfonyl)phenyl)-2-(3-methylmorpholino)pyrimidin-4-yl)phenyl)-3-(2-hydroxyethyl)urea]	> 7.00	> 7.00	≤ 5.00	≤ 5.00	≤ 5.00	≤ 5.00	≤ 5.00	≤ 5.00	≤ 5.00
C[C@H]1COCCN1c1cc(-c2ccccn2)nc(-c2ccc(NC(=O)NC3CC3)cc2)n1 [Example 42, (S)-1-cyclopropyl-3-(4-(4-(3-methylmorpholino)-6-(pyridin-2-yl)pyrimidin-2-yl)phenyl)urea]	6.00 to 7.00	6.00 to 7.00	≤ 5.00	≤ 5.00	≤ 5.00	≤ 5.00	≤ 5.00	≤ 5.00	≤ 5.00
C[C@H]1COCCN1c1cc(-c2ccccn2)nc(-c2ccc(NC(=O)NCCO)cc2)n1 [Example 43, (S)-1-(2-hydroxyethyl)-3-(4-(4-(3-methylmorpholino)-6-(pyridin-2-yl)pyrimidin-2-yl)phenyl)urea]	6.00 to 7.00	6.00 to 7.00	≤ 5.00	≤ 5.00	≤ 5.00	≤ 5.00	≤ 5.00	≤ 5.00	≤ 5.00
C[C@H]1COCCN1c1nc(-c2ccc(NC(=O)NCCF)cc2)cc(-c2cc(F)ccc2S(C)(=O)=O)n1 [Example 44, (S)-1-(4-(6-(5-fluoro-2-(methylsulfonyl)phenyl)-2-(3-methylmorpholino)pyrimidin-4-yl)phenyl)-3-(2-fluoroethyl)urea]	6.00 to 7.00	6.00 to 7.00	≤ 5.00	≤ 5.00	≤ 5.00	≤ 5.00	≤ 5.00	≤ 5.00	≤ 5.00
C[C@H]1COCCN1c1nc(-c2ccc(NC(=O)NC3CC3)cc2)cc(-c2cccnc2S(C)(=O)=O)n1 [Example 46, (S)-1-cyclopropyl-3-(4-(2-(3-methylmorpholino)-6-(2-(methylsulfonyl)pyridin-3-yl)pyrimidin-4-yl)phenyl)urea]	6.00 to 7.00	6.00 to 7.00	≤ 5.00	≤ 5.00	≤ 5.00	≤ 5.00	≤ 5.00	≤ 5.00	≤ 5.00
C[C@H]1COCCN1c1nc(-c2ccc(NC(=O)NCC(F)F)cc2)cc(-c2cc(F)ccc2S(C)(=O)=O)n1 [Example 47, (S)-1-(2,2-difluoroethyl)-3-(4-(6-(5-fluoro-2-(methylsulfonyl)phenyl)-2-(3-methylmorpholino)pyrimidin-4-yl)phenyl)urea]	6.00 to 7.00	6.00 to 7.00	≤ 5.00	≤ 5.00	≤ 5.00	≤ 5.00	≤ 5.00	≤ 5.00	≤ 5.00
C[C@H]1COCCN1c1ccnc(-c2ccc(NC(=O)Nc3ccncc3)cc2)n1 [Example 60, (S)-1-(4-(4-(3-methylmorpholino)pyrimidin-2-yl)phenyl)-3-(pyridin-4-yl)urea]	6.00 to 7.00	6.00 to 7.00	≤ 5.00	≤ 5.00	≤ 5.00	≤ 5.00	≤ 5.00	≤ 5.00	≤ 5.00
O=C(Nc1ccncc1)Nc1ccc(-c2nccc(N3CC4CCC(C3)O4)n2)cc1 [Example 61, 1-(4-(4-(8-oxa-3-azabicyclo[3.2.1]octan-3-yl)pyrimidin-2-yl)phenyl)-3-(pyridin-4-yl)urea]	6.00 to 7.00	6.00 to 7.00	≤ 5.00	≤ 5.00	≤ 5.00	5.00 to 6.00	≤ 5.00	≤ 5.00	≤ 5.00
CS(=O)(=O)c1ccc(F)cc1-c1cc(-c2ccc(NC(=O)NCCO)cc2)nc(N2CCOCC2)n1 [Example 62, 1-(4-(6-(5-fluoro-2-(methylsulfonyl)phenyl)-2-morpholinopyrimidin-4-yl)phenyl)-3-(2-hydroxyethyl)urea]	6.00 to 7.00	6.00 to 7.00	≤ 5.00	≤ 5.00	≤ 5.00	≤ 5.00	≤ 5.00	≤ 5.00	≤ 5.00
C[C@H]1COCCN1c1nc(-c2ccc(NC(=O)NCCCO)cc2)cc(-c2cc(F)ccc2S(C)(=O)=O)n1 [Example 64, (S)-1-(4-(6-(5-fluoro-2-(methylsulfonyl)phenyl)-2-(3-methylmorpholino)pyrimidin-4-yl)phenyl)-3-(3-hydroxypropyl)urea]	6.00 to 7.00	6.00 to 7.00	≤ 5.00	≤ 5.00	≤ 5.00	≤ 5.00	≤ 5.00	≤ 5.00	≤ 5.00
C[C@H]1COCCN1c1nc(-c2ccc(NC(=O)N[C@H]3CCC[C@@H]3O)cc2)cc(-c2cc(F)ccc2S(C)(=O)=O)n1 [Example 76, 1-(4-(6-(5-fluoro-2-(methylsulfonyl)phenyl)-2-((S)-3-methylmorpholino)pyrimidin-4-yl)phenyl)-3-((1S,2S)-2-hydroxycyclopentyl)urea]		6.00 to 7.00		≤ 5.00		≤ 5.00	≤ 5.00	≤ 5.00	≤ 5.00
